Test results from patent US5739334A (Istituto Ricerca Francesco Angelini S.p.A., priority 1992, dated 1998).

Legend:
DL50 = format: in vivo; parameters: unit not given beside the values; conditions: species, route and unit not given
serotonin 2 = experiment: Chemical bond studies: interference with serotonin 2 receptor (% inhibition); format: binding; conditions: table 2
alpha 1 = experiment: Chemical bond studies: interference with alpha 1 receptor (% inhibition); format: binding; conditions: table 2
[1] = Burger's Medicinal Chemistry, 4th ed. (1981); cited from earlier work
[2] = attributed to action on adrenergic receptors (alpha 1 and alpha 2); cited from earlier work

| Structure (SMILES) | DL50 (DL50) | serotonine 2 (% inhibition) (serotonin 2; C = 10^-5 M) [%] | serotonine 2 (% inhibition) (serotonin 2; C = 10^-7 M) [%] | alpha 1 (% inhibition) (alpha 1; C = 10^-5 M) [%] | alpha 1 (% inhibition) (alpha 1; C = 10^-7 M) [%] | clinical actions [1] | sporadic side effects [2] |
| --- | --- | --- | --- | --- | --- | --- | --- |
| CC(CN1CCN(c2cccc(Cl)c2)CC1)Cn1nc2ccccn2c1=O (centres unmarked) [(I) R' = R" = R"' = H; R = CH3, 2-[3-[4-(3-chlorophenyl)-1-piperazine]-2-methylpropyl]-1,2,4-triazole[4,3-a]-pyridin-3-(2H)-one] | ≤ 600 | 100 | 62 | 88 | 27 |  |  |
| O=c1n(CCCN2CCN(c3cccc(Cl)c3)CC2)nc2ccccn12 [trazodone] | ≥ 200 |  |  |  |  | diazepine-like clinical actions | hypotension and priapism |
| CC(CCn1nc2ccccn2c1=O)N1CCN(c2cccc(Cl)c2)CC1 (centres unmarked) [(I) R = R" = R"' = H; R' = CH3, 2-[3-[4-(3-chlorophenyl)-1-piperazinyl]-3-methylpropyl]-1,2,4-triazole-[4,3-a]-pyridin-3(2H)-one] | ≤ 300 | 100 | 59 | 91 | 26 |  |  |
| CC1CN(c2cccc(Cl)c2)CCN1CCCn1nc2ccccn2c1=O (centres unmarked) [(I) R = R' = R"' = H; R" = CH3, 2-[3-[4-(3-chlorophenyl)-1-(2-methyl)-piperazinyl]-propyl]-1,2,4-triazole-[4,3-a]-pyridin-3(2H)-one] | 300 | 100 | 69 | 96 | 37 |  |  |
| CC1CN(CCCn2nc3ccccn3c2=O)CCN1c1cccc(Cl)c1 (centres unmarked) [(I) R = R' = R" = H; R"' = CH3, 2-[3-[4-(3-chlorophenyl)-1-(3-methyl)-piperazinyl]-propyl]-1,2,4-triazole-[4,3-a]-pyridin-3(2H)-one] | ≤ 600 | 98 | 68 | 85 | 20 |  |  |
